Assay results from PMC12064818, “A general assay platform to study protein pharmacology using ligand-dependent structural dynamics” (Nature Communications, 2025).
Like-named read-outs stand apart in the source and are kept apart here.

What was measured:
[1] = target: T1, endogenous DHFR-C-HiBiT in HEK293 cell lysate (Homo sapiens, UniProt P00374); test: SDR assay, cellular lysate from DHFR C-terminus HiBiT gene edited HEK293 cells; assay type: binding
T1 construct: from a mammalian cellular lysate containing an endogenous α-peptide tagged protein, obtained using CRISPR/Cas9-mediated homologous recombination; host or cells: HEK293 constitutively expressing S. pyogenes Cas9, CRISPR/HDR-edited monoclonal line; NP-40 lysate used at 1:100
T1 sequence (P00374 1-187): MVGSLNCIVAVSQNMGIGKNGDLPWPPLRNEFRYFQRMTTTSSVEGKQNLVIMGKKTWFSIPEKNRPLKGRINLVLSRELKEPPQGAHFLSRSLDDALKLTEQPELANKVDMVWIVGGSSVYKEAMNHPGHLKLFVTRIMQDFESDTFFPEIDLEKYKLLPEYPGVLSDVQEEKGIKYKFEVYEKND
Description: A HEK293 cell line constitutively expressing S. pyogenes Cas9 (GeneCopoeia, Cat # SL553) was used to generate the C-terminal edit of the DHFR gene (DHFR-C-HiBiT) applying general methodology previously described[24],[52],[53]. The DHFR 3’-gene sequence surrounding the stop codon (underlined), […] […], used to generate the CRISPR-Cas9 crRNA sequence, […], was accomplished with IDT software (Custom Alt-R CRISPR-Cas9 guide RNA).
For lysate preparation, the DHFR-C-HiBiT gene edited HEK293 monoclonal cell line was grown in a T75 flask (DMEM, 10% FBS, 1% P/S) to confluence. […] The cell pellet was lysed by adding 500 μL ice-cold NP-40 lysis buffer (ThermoFisher Scientific, Cat # FNN0021) containing 5 µL 100x protease inhibitor cocktail in DMSO (Sigma Aldrich, Cat # P8340-1mL) incubated on a rocker at 4 °C for 1 h (protected from light), centrifuged at 15,000 g for 10 min at 4 °C, after which supernatant was transferred to a 1.5 mL Eppendorf tube, and frozen at −80 °C.
Protein-HiBiT targets were expressed and purified to various levels of homogeneity and optimized at indicated concentrations, not necessarily the lowest possible concentrations, to produce consistent luminescence with statistically significant signal above no protein background control in target specific assay buffer (see Supplementary Table 11). Four μL/well buffer control (column 1) and NLuc or HiBiT tagged proteins (columns 2-48) were dispensed into 1536-well Greiner Bio-One white, high solid base, medium bind plates with a BioRaptr 2. Compounds and controls were added to the microtiter plates as described in Supplementary Data 8, then incubated and protected from light for 30 min at ambient temperature. A modified dispensing protocol was developed for aqueous ligands that were unable to be transferred by pintool (see Supplementary Table 10 aqueous ligand dispense section). The substrate solution was prepared according to manufacturer’s protocol where ω-fragment (LgBiT) was added at 1:100 dilution and NLuc substrate (furimazine) was prepared at 1:50 dilution in Nano-Glo HiBiT lytic buffer (Promega, Cat # N3040). This substrate solution, 3 μL/well, was added with a BioRaptr 2 and assay plates were protected from light and incubated for 10 min at ambient temperature. NLuc luminescence was measured on a ViewLux CCD plate reader with optimized reader settings to each protein target (see Supplementary Tables 10, 11 and Supplementary Fig. 14 for additional details).

[2] = target: T2, DHFR-C-HiBiT (Homo sapiens, UniProt P00374); test: SDR assay, purified DHFR-C-HiBiT
T2 sequence (P00374 2-187): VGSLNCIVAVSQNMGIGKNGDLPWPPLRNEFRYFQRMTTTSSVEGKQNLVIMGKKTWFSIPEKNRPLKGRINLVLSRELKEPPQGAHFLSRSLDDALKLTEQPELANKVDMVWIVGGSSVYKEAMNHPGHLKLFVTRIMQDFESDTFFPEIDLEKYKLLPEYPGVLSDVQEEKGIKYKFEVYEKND

[3] = target: T2, DHFR-C-HiBiT; test: Dihydrofolate reductase enzymatic absorbance assay; assay type: biochemical; set-up: His10 (C); made in house; host or cells: E. coli
Experimental: To accommodate consistent compound addition used in this study, DHFR enzymatic activity[72],[73] was measured in a 1536-well miniaturized assay adapted from the Sigma-Aldrich dihydrofolate reductase assay (Cat # CS0340). […] Compounds and controls were added as above to each plate as described in Supplementary Data 8. DHFR-C-HiBiT was incubated with compounds for 20 min at ambient temperature. […] Then 2 µL of dihydrofolate (DHF, Sigma-Aldrich, Cat # D7006) substrate, freshly prepared according to manufacturer’s protocol and diluted in 1X assay kit buffer, was dispensed into each microplate well with a BioRaptr 2 for a final assay DHF concentration of 100 μM. […] See Supplementary Table 9 for additional details.
Supplementary Table 9. Protocol for Dihydrofolate reductase (DHFR) enzymatic absorbance […]
Supplementary Table 9: Protocol for Dihydrofolate reductase (DHFR) enzym atic absorbance assay Sequence Param eter ValueDescription
No enzym e control (colum n 1) and enzym e solution (100 nM DHFR-C-HiBiT final assay […]
(Aurora), dispensed with BioRaptr 2 […]
com pounds transferred to respective colum ns with Pintool
2b Test Com pounds 23 nLfinal concentration range) in colum ns 5-48; com pounds transferred to respective wells with […]
3 Incubation 20 m inIncubate enzym e + com pounds at am bient tem p for 20 m in, protected from light 5 Reagent 2 µLSubstrate solution; dihydrofolic acid (100 µM final concentration) in 1X assay buffer; dispensed with BioRaptr 2
6 Incubation 10 m inAm bient tem perature, protected from light
Dihydrofolic acid substrate solution: 1X assay buffer (Sigm a-Aldrich, Cat # A5603); 300 µM dihydrofolic acid (100 µM 5 final) (Sigm a-Aldrich, Cat # D7006) prepared fresh according to m anufacturer’s protocol. Solution filtered through 0.22 µm syringe filter prior to dispense.

**Q.** How did the “pSDR50 (lysate + 1 mM NADPH), Mean” value ([1]; 1:100 lysate (~0.2 nM) with 1 mM NADPH) turn out when `CN(Cc1cnc2nc(N)nc(N)c2n1)c1ccc(C(=O)NC(CC(F)C(=O)O)C(=O)O)cc1` (centres unmarked) [g-fluoromethotrexate] was run?
**A.** Its value is 9.1.

**Q.** And the “pSDR50 (lysate), Mean” value ([1]; 1:100 lysate (~0.2 nM) without added NADPH)?
**A.** Its value is 7.8.

**Q.** What about the “pSDR50 (DHFR-C-HiBiT), Mean” value ([2]; SDR assay using DHFR-C-HiBiT (0.5 nM)) of the same compound?
**A.** Its value is 8.70.

**Q.** And the “pIC50 (DHFR Enz Assay), Mean” value ([3]; functional DHFR-C-HiBiT assay (100 nM, 75 mM NADPH))?
**A.** Its value is 6.55.

**Q.** What does the source list for `Nc1nc2[nH]cc(CCc3ccc(C(=O)N[C@@H](CCC(=O)O)C(=O)O)cc3)c2c(=O)[nH]1` [pemetrexed]?
**A.** DHFR binding in SDR assay (in words) ([2]; purified DHFR-C-HiBiT): poor DHFR affinity; DHFR affinity in functional assay (in words) ([3]; DHFR-C-HiBiT 100 nM, 75 μM NADPH): poor DHFR affinity

**Q.** `C#CCC(Cc1cnc2nc(N)nc(N)c2n1)c1ccc(C(=O)N[C@@H](CCC(=O)O)C(=O)O)cc1` (some centres unmarked) [pralatrexate] was tested. Which EC50 ([1]; 1:100 lysate (~0.2 nM) with 1 mM NADPH, read-out: pSDR50 (lysate + 1 mM NADPH), Mean (converted)) did it give?
**A.** The EC50 was 0.316 nM.

**Q.** And the EC50 ([1]; 1:100 lysate (~0.2 nM) without added NADPH, read-out: pSDR50 (lysate), Mean (converted))?
**A.** The EC50 was 3.16 nM.

**Q.** And the EC50 [2]?
**A.** The EC50 was 1.02 nM.

**Q.** What about the “enhanced sensitivity in the SDR assay format versus functional DHFR assay” value ([2]; DHFR-C-HiBiT 0.5 nM, 5 μM NADPH (SDR) vs 100 nM, 75 μM NADPH (functional)) of the same compound?
**A.** The value was ~ 100 fold.

**Q.** And the IC50 ([3]; functional DHFR-C-HiBiT assay (100 nM), read-out: pIC50 (DHFR Enz Assay), Mean (converted))?
**A.** Its IC50 is 107 nM.
